Substitutions are numbered along the chain they refer to. Calls of active or inactive are those of the source. The calls are words filed in the database; no cut-off is given here.
How the values were obtained:
[1] = target: T1, Type-1 angiotensin II receptor (Oryctolagus cuniculus, UniProt P34976); experiment: Antagonist activity against AT1 receptor in Japanese White rabbit aortic strips assessed as reduction in angiotension-2-induced contractile response after 60 mins by Schild's plot analysis; conditions: read-out: pA2 (converted)
T1 sequence (P34976 whole entry): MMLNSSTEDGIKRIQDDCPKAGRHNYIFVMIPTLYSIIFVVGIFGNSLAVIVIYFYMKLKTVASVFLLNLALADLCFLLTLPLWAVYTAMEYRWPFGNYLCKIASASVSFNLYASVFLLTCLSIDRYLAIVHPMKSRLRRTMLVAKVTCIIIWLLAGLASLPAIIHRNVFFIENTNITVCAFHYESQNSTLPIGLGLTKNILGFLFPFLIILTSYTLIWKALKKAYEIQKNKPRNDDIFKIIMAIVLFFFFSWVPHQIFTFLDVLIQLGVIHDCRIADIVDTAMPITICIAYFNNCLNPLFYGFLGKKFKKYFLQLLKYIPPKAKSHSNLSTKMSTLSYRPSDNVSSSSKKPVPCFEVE

[2] = target: T2, Type-1 angiotensin II receptor (Homo sapiens, UniProt P30556); experiment: Displacement of [125I]Sar1Ile8-Ang2 from human AT1 receptor expressed in CHO-K1 cell membranes after 180 mins
T2 sequence (P30556 whole entry): T1 sequence (P34976 whole entry) with M2I, A49V, V254I, V270I, H272R, K311R, S349T, V353A

[3] = test system: Rattus norvegicus; experiment: Antihypertensive activity in spontaneously hypertensive rat assessed as decrease in mean blood pressure at 10 mg/kg, po within 24 hrs by tail-cuff plethysmography; type: functional, organism-based
[4] = Toxicity in Kunming mouse at 2 g/kg, po assessed as mortality after 2 weeks; type: organism-based; conditions: in vivo, 2000 mg/kg
[5] = Toxicity in Kunming mouse at 1.5 g/kg, po assessed as mortality after 2 weeks; type: organism-based; conditions: in vivo, 1500 mg/kg
[6] = Toxicity in Kunming mouse at 1.8 g/kg, po assessed as mortality after 2 weeks; type: organism-based; conditions: in vivo, 1800 mg/kg
[7] = Toxicity in Kunming mouse at 1.3 g/kg, po assessed as mortality after 2 weeks; type: organism-based; conditions: in vivo, 1300 mg/kg
[8] = Toxicity in orally dosed Kunming mouse assessed as mortality after 2 weeks; type: organism-based; conditions: in vivo, po
[9] = test system: Rattus norvegicus; experiment: Antihypertensive activity in spontaneously hypertensive rat assessed as mean blood pressure at 30 mg/kg, po by tail-cuff plethysmography; type: functional, organism-based

| Kb [1] [nM] | IC50 [2] [nM] | SMILES | also measured |
| --- | --- | --- | --- |
| – | 1.4 | CCCSc1nc2c(C)cc(C(=O)NC[C@H](C)c3ccccc3)cc2n1Cc1ccc(-c2ccccc2-c2nnn[nH]2)cc1 | Activity [3]: inactive |
| 3.63 | 57.9 | CCCc1nc2c(C)cc(C(=O)N[C@H](COC)c3ccccc3)cc2n1Cc1ccc(-c2ccccc2C(=O)O)cc1 | – |
| – | 487 | CCSc1nc2c(C)cc(C(=O)NC[C@H](C)c3ccccc3)cc2n1Cc1ccc(-c2ccccc2C(=O)O)cc1 | – |
| – | 57.4 | CCOc1nc2c(C)cc(C(=O)NC[C@@H](C)c3ccccc3)cc2n1Cc1ccc(-c2ccccc2C(=O)O)cc1 | – |
| – | 104 | CCCc1nc2c(C)cc(C(=O)NC[C@@H](O)c3ccccc3)cc2n1Cc1ccc(-c2ccccc2C(=O)O)cc1 | – |
| 3.16 | 70 | CCCc1nc2c(C)cc(C(=O)N[C@@H](COC)c3ccccc3)cc2n1Cc1ccc(-c2ccccc2C(=O)O)cc1 | – |
| – | – | CCCCc1nc(Cl)c(CO)n1Cc1ccc(-c2ccccc2-c2nn[nH]n2)cc1 [LOSARTAN] | mortality at 336 h [4]: 90%; mortality at 336 h [5]: 30%; mortality at 336 h [6]: 80%; mortality at 336 h [7]: 10%; LD50 at 336 h [8]: 1570 mg/kg |
| – | 3.5 | CCOc1nc2c(C)cc(C(=O)NC[C@H](C)c3ccccc3)cc2n1Cc1ccc(-c2ccccc2-c2nnn[nH]2)cc1 | – |
| – | 699 | CSc1nc2c(C)cc(C(=O)NC[C@@H](C)c3ccccc3)cc2n1Cc1ccc(-c2ccccc2-c2nnn[nH]2)cc1 | – |
| – | 1120 | CCCc1nc2c(C)cc(C(=S)NC[C@H](C)c3ccccc3)cc2n1Cc1ccc(-c2ccccc2C(=O)O)cc1 | – |
| 5.62 | 23 | CCCc1nc2c(C)cc(C(=O)NC[C@H](C)c3ccccc3)cc2n1Cc1ccc(-c2ccccc2C(=O)O)cc1 | – |
| – | 622 | CCSc1nc2c(C)cc(C(=O)NC[C@@H](C)c3ccccc3)cc2n1Cc1ccc(-c2ccccc2-c2nnn[nH]2)cc1 | – |
| – | 503 | CCSc1nc2c(C)cc(C(=O)NC[C@H](C)c3ccccc3)cc2n1Cc1ccc(-c2ccccc2-c2nnn[nH]2)cc1 | – |
| – | – | CCCCc1nc(Cl)c(CO)n1Cc1ccc(-c2ccccc2-c2nnn[nH]2)cc1 | Activity [9]: Active |
| 7.41 | 496 | CCCc1nc2c(C)cc(C(=O)N[C@@H](CO)c3ccccc3)cc2n1Cc1ccc(-c2ccccc2C(=O)O)cc1 | – |
| – | 2.7 | CCCSc1nc2c(C)cc(C(=O)NC[C@@H](C)c3ccccc3)cc2n1Cc1ccc(-c2ccccc2-c2nnn[nH]2)cc1 | Activity [3]: inactive |
| – | 366 | CCCc1nc2c(C)cc(C(=S)NC[C@H](C)c3ccccc3)cc2n1Cc1ccc(-c2ccccc2-c2nnn[nH]2)cc1 | – |
| – | 671 | CSc1nc2c(C)cc(C(=O)NC[C@H](C)c3ccccc3)cc2n1Cc1ccc(-c2ccccc2-c2nnn[nH]2)cc1 | – |

| Kb [1] [nM] | IC50 [2] [nM] | SMILES | also measured |
| --- | --- | --- | --- |
| – | 106 | CCCc1nc2c(C)cc(C(=O)NC[C@@H](O)c3ccccc3)cc2n1Cc1ccc(-c2ccccc2-c2nnn[nH]2)cc1 | – |
| 8.13 | 23.1 | CCCc1nc2c(C)cc(C(=O)NCCc3ccccc3)cc2n1Cc1ccc(-c2ccccc2C(=O)O)cc1 | – |
| – | 19.5 | CCCc1nc2c(C)cc(C(=O)N[C@@H](C)c3ccccc3)cc2n1Cc1ccc(-c2ccccc2C(=O)O)cc1 | Activity [3]: inactive |
| 1.86 | 40.4 | CCCc1nc2c(C)cc(C(=O)NC[C@@H](C)c3ccccc3)cc2n1Cc1ccc(-c2ccccc2C(=O)O)cc1 | – |
| – | 93.9 | CCCc1nc2c(C)cc(C(=O)NC[C@H](O)c3ccccc3)cc2n1Cc1ccc(-c2ccccc2C(=O)O)cc1 | – |
| 3.98 | 214 | CCCc1nc2c(C)cc(C(=O)N[C@H](CO)c3ccccc3)cc2n1Cc1ccc(-c2ccccc2C(=O)O)cc1 | – |
| – | 343 | CCCc1nc2c(C)cc(C(=S)NC[C@@H](C)c3ccccc3)cc2n1Cc1ccc(-c2ccccc2-c2nnn[nH]2)cc1 | – |
| – | 87.2 | CCCSc1nc2c(C)cc(C(=O)NC[C@@H](C)c3ccccc3)cc2n1Cc1ccc(-c2ccccc2C(=O)O)cc1 | – |
| – | 6.3 | CCOc1nc2c(C)cc(C(=O)NC[C@@H](C)c3ccccc3)cc2n1Cc1ccc(-c2ccccc2-c2nnn[nH]2)cc1 | – |
| – | 161 | CCCc1nc2c(C)cc(C(=O)NC[C@H](O)c3ccccc3)cc2n1Cc1ccc(-c2ccccc2-c2nnn[nH]2)cc1 | – |
| – | 788 | CCSc1nc2c(C)cc(C(=O)NC[C@@H](C)c3ccccc3)cc2n1Cc1ccc(-c2ccccc2C(=O)O)cc1 | – |
| – | 90.5 | CCCc1nc2c(C)cc(C(=O)N[C@H](C)c3ccccc3)cc2n1Cc1ccc(-c2ccccc2C(=O)O)cc1 | – |
| – | 609 | CSc1nc2c(C)cc(C(=O)NC[C@H](C)c3ccccc3)cc2n1Cc1ccc(-c2ccccc2C(=O)O)cc1 | – |
| – | 61.2 | CCCSc1nc2c(C)cc(C(=O)NC[C@H](C)c3ccccc3)cc2n1Cc1ccc(-c2ccccc2C(=O)O)cc1 | – |
| – | 1370 | CSc1nc2c(C)cc(C(=O)NC[C@@H](C)c3ccccc3)cc2n1Cc1ccc(-c2ccccc2C(=O)O)cc1 | – |
| – | 738 | CCCc1nc2c(C)cc(C(=S)NC[C@@H](C)c3ccccc3)cc2n1Cc1ccc(-c2ccccc2C(=O)O)cc1 | – |
| – | 7.3 | CCOc1nc2c(C)cc(C(=O)NC[C@H](C)c3ccccc3)cc2n1Cc1ccc(-c2ccccc2C(=O)O)cc1 | – |

| SMILES | Kb [1] [nM] | IC50 [2] [nM] | also measured |
| --- | --- | --- | --- |
| CCCc1nc2c(C)cc(C(=O)NC[C@@H](C)c3ccccc3)cc2n1Cc1ccc(-c2ccccc2-c2nnn[nH]2)cc1 | 26.3 | 5 | – |
| CCCc1nc2c(C)cc(C(=O)N[C@H](CO)c3ccccc3)cc2n1Cc1ccc(-c2ccccc2-c2nnn[nH]2)cc1 | 7.76 | 129 | – |
| CCCc1nc2c(C)cc(C(=O)N[C@@H](COC)c3ccccc3)cc2n1Cc1ccc(-c2ccccc2-c2nnn[nH]2)cc1 | 6.92 | 38.9 | – |
| CCCc1nc2c(C)cc(C(=O)N[C@H](COC)c3ccccc3)cc2n1Cc1ccc(-c2ccccc2-c2nnn[nH]2)cc1 | 3.16 | 157 | – |
| CCCc1nc2c(C)cc(C(=O)N[C@@H](CO)c3ccccc3)cc2n1Cc1ccc(-c2ccccc2-c2nnn[nH]2)cc1 | 15.8 | 293 | – |
| CCCc1nc2c(C)cc(C(=O)NCC(C)c3ccccc3)cc2n1Cc1ccc(-c2ccccc2-c2nnn[nH]2)cc1 (racemic) | 3.09 | 16.7 | – |

From ChEMBL document CHEMBL3734751, “Discovery of novel, potent and low-toxicity angiotensin II receptor type 1 (AT1) blockers: Design, synthesis and biological evaluation of 6-substituted aminocarbonyl benzimidazoles with a chiral center” (Eur J Med Chem, 2015)
